In PMC8235661, “Photoelectric Dye, NK-5962, as a Potential Drug for Preventing Retinal Neurons from Apoptosis: Pharmacokinetic Studies Based on Review of the Evidence” (Life, 2021):
Where two headings read alike, the source gives them in different places.

Tests used:
[1] = test system: apoptotic cells in the retinal outer nuclear layer of RCS rats; test: Intravitreous injection of NK-5962 in RCS rats, TUNEL assay of retinal outer nuclear layer; assay type: in vivo, rat
Procedure: NK-5962 powder was dissolved in distilled deionized water at a concentration of 8.2 μg/mL (16 μM). This original stock solution of NK-5962 (8.2 μg/mL) was diluted with saline (0.9% sodium chloride) to make a series of 10-fold dilutions from 8.2 × 10^−4 to 8.2 μg/mL. Twenty male pink-eyed RCS rats (RCS/Jcl-rdy/rdy, p-, CLEA Japan, Inc., Tokyo, Japan) at the age of 4 weeks were assigned to 5 groups (n = 4) that received NK-5962 at 5 different concentrations. Intravitreous injection was performed twice at the age of 4 and 5 weeks (Figure 4A). This study was approved by the Animal Care and Use Committee at the Okayama University (Identifier OKU-2013441) and based on the Animal Welfare and Management Act in Japan.
RCS rats were anesthetized by intraperitoneal injection of ketamine (87 mg/kg body weight, Daiichi Sankyo, Tokyo, Japan) and xylasine (13 mg/kg, Bayer Japan, Osaka, Japan). Mydriasis was induced by 0.5% tropicamide and 0.5% phenylephrine instillation (Santen Pharmaceutical, Osaka, Japan) and corneal anesthesia was further obtained with 0.4% oxybuprokaine instillation (Santen Pharmaceutical, Osaka, Japan). Under a dissecting microscope, 3 μL of NK-5962 solution and saline (0.9% sodium chloride) was injected into the vitreous of the left eye and the right eye, respectively, with a 30-gauge needle attached to a Hamilton syringe (50 μL 1705 LT SYR; Hamilton Company, Reno, NV, USA). The needle was inserted almost at a perpendicular angle and at 1mm from the corneoscleral limbus to avoid the damage to the lens. Antibiotic (0.5% moxifloxacin, Novartis Pharma Japan, Tokyo, Japan) eye drops were instilled for both eyes. Each rat was housed in a standard rat cage in the 12 h light and dark cycle at the Animal Center of Okayama University. In a separate experiment, 3 rats were placed and maintained in constant darkness after intravitreous injection of NK-5962 at a concentration of 8.2 μg/mL (16 μM).
Apoptotic cells were detected by terminal deoxynucleotidyl transferase-mediated fluorescein-conjugated dUTP nick-end-labeling (TUNEL) assay, according to the manufacturer’s instructions (In Situ Cell Death Detection Kit, Roche Diagnostics, Mannheim, Germany). The images at the constant exposure time were captured by an Olympus FSX100 microscope that was equipped with the fluorescent filter cube U-MWIBA3. Five photographs in each of 5 retinal vertical sections per eye were taken and an entire frame (220 × 165 μm) of each photograph with ×40 NA0.95 objective lens was used for measurements. The number of TUNEL-positive cells in the outer nuclear layer at each retinal site (a, b, c and d, Figure 4B) was counted in each frame of photographs. The number of TUNEL-positive cells per 1,000 μm^2 of the outer nuclear layer was calculated for comparison by two-factor ANOVA. […]

[2] = PAMPA (parallel artificial membrane permeability assay); assay type: in vitro ADME; details: PAMPA, pH 6.5; 0.2 μM test compound, 37 °C, 4 h
Procedure: In order to determine the passive membrane diffusion rates, the Corning Gentest Pre-coated PAMPA Plate System was used in the PAMPA test. […] The acceptor plate was then placed on top of the donor plate and incubated at 37 °C without agitation for 4 h. At the end of the incubation, the plates were separated and the solutions from each well of both the acceptor plate and the donor plate were transferred to 96-well plates and mixed with acetonitrile. The final concentrations of compound in both the donor wells and acceptor wells, as well as the concentrations of the initial donor solutions, were analyzed by LC-MS/MS. The permeability of the compound was calculated according to the previous report.

[3] = Hepatic microsomal stability assay, rat; assay type: in vitro ADME
Procedure: The disappearance of the parent compound over time was measured by using the amount of drug at time zero as a reference. After 5 min of preincubation, 1 mM NADPH (final concentration, the same applies to the following) was added to a mixture containing 1 μM of the test compound, 0.2 mg/mL of rat or human liver microsomes (Sekisui XenoTech, LLC, Kansas City, KS), 1 mM EDTA, and 100 mM phosphate buffer (pH 7.4) and then incubated at 37 °C for 30 min by rotation at 60 rpm. An aliquot of 50 μL of the incubation mixture was sampled and added to 250 μL of chilled acetonitrile/internal standard (IS). After the centrifugation for 15 min at 3150× g at 4 °C, the supernatants were analyzed by LC-MS/MS. Hepatic microsomal stability (mL/min/kg, CLint) was calculated according to the previous report and 44.8 or 48.8 mg microsomal protein/g liver and 40.0 or 25.7 g liver/kg body weight were used as scaling factors for the rat or human, respectively.

[4] = Unbound fraction by equilibrium dialysis, human plasma; assay type: in vitro ADME; details: 1 μM, equilibrium dialysis 37 °C 4 h
Procedure: An equilibrium dialysis apparatus, Rapid Equilibrium Dialysis (RED) Device Single-Use Plate with Inserts, 8K MWCO (ThermoFisher Scientific, Waltham, MA, USA), was used to determine the unbound fraction for each compound in human plasma, rat plasma, and medium containing 10% fetal bovine serum (FBS). Plasma or medium was mixed with the test compound (1 μM) and 200 μL aliquots were loaded into the apparatus and dialyzed versus 350 μL of 100 mM phosphate buffer (pH 7.4) at 37 °C for 4 h by rotation at 1000 rpm. The unbound fraction was calculated as the ratio of receiver side (buffer) to donor side (plasma) concentrations.

Cytotoxicity test = assay type: cell-based
[5] = test system: apoptotic cells in the retinal outer nuclear layer of RCS rats; set-up: method as in PMID 28085534; details: cited from earlier work

For `CCCCN(CCCC)c1ccc(C=Cc2sc3ccccc3[n+]2CC(=O)O)cc1.[Br-]` [NK-5962, 2-[2-[4-(dibutylamino)phenyl]ethenyl]-3-carboxymethylbenzothiazolium bromide], the “percent ratio of the number of TUNEL-positive cells versus saline” value ([1]; 1.6 μM NK-5962 intravitreous) was 61%, the “percent ratio of the number of TUNEL-positive cells versus saline” value ([1]; 16 μM NK-5962 intravitreous) was 56% and the EC50 ([1]; 16 μM × 3 μL / (3 + 13) μL, rat vitreous cavity estimated 13 μL, read-out: in vivo EC50 as intravitreous concentration) was 3 µM. For the same compound, the EC50 ([1]; Rattus norvegicus, 3 μL intravitreous injection, read-out: EC50 (50% effective concentration), concentration of injected solution) was roughly 16 µM, the Papp at 4 h, 0.2 μM [2] was 0.31 ×10⁻⁶ cm/s and the “Microsome Metabolic Stability Rat” value ([3]; 1 μM, 0.2 mg/mL microsomes, 1 mM NADPH, 30 min) was 151.9 µL/min/mg. For the same compound, the “metabolic stability (in words)” value ([3]; rat liver microsomes) was “moderate metabolic stability”, the “stability in the absence of the coenzyme NADPH” value ([3]; rat liver microsomes, without NADPH) was “stable” and the CLint scaled at 1 μM ([3]; rat, liver microsomes, pH 7.4, 1 μM, 0.2 mg/mL microsomes, 1 mM NADPH, 30 min, read-out: Microsome Metabolic Stability Rat (CLint)) was 272 mL/min/kg. For the same compound, the “Protein-Binding (Non-Binding Ratio) Human Plasma” value [4] was 0.028, the “toxicity in the cytotoxicity test” value (Cytotoxicity test) was “not toxic” and the “number of TUNEL-positive cells in the outer nuclear layer of the four retinal sites (a + b + c + d)” value ([5]; 1.6 μM NK-5962 intravitreous, saline 139) was 85. For the same compound, the “number of TUNEL-positive cells in the outer nuclear layer of the four retinal sites (a + b + c + d)” value ([5]; 16 μM NK-5962 intravitreous, saline 129) was 72, the “number of TUNEL-positive cells in the outer nuclear layer compared to saline-injected eyes” value ([5]; intravitreous 16 μM, constant dark condition, P = 0.0001) was “significantly less” and the “TUNEL-positive cells in the outer nuclear layer compared to the saline-injected eyes” value ([5]; intravitreous 3 μL twice, 16 to 16 × 10^−2 μM, 12 h light/dark cycle) was “significantly less”.
